The structures appear in SMILES notation. In brackets after ≈: the same amount, converted by molar mass. Like-named read-outs stand apart in the source and are kept apart here.

In data set [1] the test system is acetic acid induced writhing in mice. Nature of the data set: Writhing induced by acetic acid (analgesic activity). In kind it is in vivo, Swiss albino mice. As to conditions: oral, 3 h prior to acetic acid, Ibuprofen 20 mg/kg or molecular equivalent dose of conjugate. For orientation: In writhing tests, fewer writhes than in controls are read as antinociception.
Method: Analgesic activity was carried out by using acetic acid induced writhing method in Swiss albino mice (25–30 g) of either sex. A 1% v/v solution of acetic acid was used to induce writhing. Test compounds were administered orally 3 h prior to acetic acid injection. Number of writhing for 10 min in control and test compounds were counted and compared. […] Acetic acid was administered intraperitoneally 1 ml/100 g body weight of the animal. Analgesic activity was measured as percent decrease in writhing in comparison to control. The percent Inhibition was calculated using the following equation: % Inhibition = 100 − number of writhings in test/number of writhings in control×100
Analgesic activity was carried out by using acetic acid induced writhing method in Swiss albino mice (25–30 g) of either sex. A 1% v/v solution of acetic acid was used to induce writhing. Test compounds were administered orally 3 h prior to acetic acid injection.
The conditions of data set [2]: cited from earlier work.
Data set [3] in a line: Determination of drug solubility (distilled water and phosphate buffer pH 7.4). In kind it is physicochemical. As to conditions: UV 222 nm. Here is the method:
This suspension was stirred at room temperature for 24 hours with a Rota spin test tube Roter. After that the containers (test tubes) were left overnight for saturation. Then these saturated solutions were centrifuged at 10000 rpm the help of macro centrifuge and the supernatant was filtered via Whatman filter paper. The concentration of Ibuprofen was determined spectrophotometrically at 222 nm.

Data set [4] relates to carrageenan-induced paw edema in rats. Nature of the data set: Carrageenan-induced paw edema (anti-inflammatory activity). The class given is in vivo. The note with it: Wistar rats, oral, mean ± SEM. The procedure:
All the animals were obtained from the animal house of the Department of Pharmacology, […] College of Pharmacy, Mandsaur and its animal facility is approved by […]. No. 918/ac/05/CPCSEA). The experimental protocols for the same have been approved by Institutional Animal Ethics Committee. The analgesic activity was carried out on Swiss albino mice by the Siegmund et al. method; anti-inflammatory activity of the compounds was carried out on Wistar rats by the Winter et al. method. The anti-inflammatory activity was evaluated using carrageenan-induced paw edema on rat method. To evaluate the anti-inflammatory activity of the conjugates 4 groups (n = 6) of Wistar rats (150-200 g) were examined. […] A stock solution of 0.2, 0.52 and 2.14 mg ml^-1 was prepared as a homogeneous suspension in aqueous solution of sodium CMC (0.5% w/v) and each animal received 2.0- 2.2 ml of the respective drugs orally. Thirty minutes after administration of drugs, each rat received a subplanter injection of 0.1 ml of 1% carrageenan solution in its left hind paw. The swelling volume of the paw was measured before (time 0) and at 0.5, 1, 2, 3, 4, 24 h after the carrageenan injection. The measurement of the hind paw volume was carried out using an Ugo Basile Plethysmometer before any treatment (Vo) and in any interval (Vt) after the administration of the drugs. The percentage increase in the paw volume was calculated from the normal paw volume. The percentage of swelling inhibition was calculated using: Inhibition (%) = (Vt - Vo)control - (Vt - Vo)treated/(Vt - Vo)×100 (Vt and Vo relates to the average volume in the hind paw of the rats (n = 6) before any treatment and after anti-inflammatory agent treatment, respectively.

For data set [5] the following is noted: oral administration; cited from earlier work.

The solubility is how much of the substance goes into solution per volume. On to `CC(C)Cc1ccc(C(C)C(=O)O)cc1` (centres unmarked) [Ibuprofen, 2-(4-iso-butylphenyl)-propanoic acid], for which the “Percent inhibition (decrease) in writhing number versus control” value in data set [1] is reported as 59.61%. The “Solubility in water (in words)” value in data set [2] was “poorly soluble in water”. For the same compound, the solubility at 24 h in data set [3] (distilled water, room temperature, read-out: Solubility in distilled water) was 10.6 µg/mL (≈ 51.2 µM); in data set [3] (phosphate buffer pH 7.4, room temperature, read-out: Solubility in phosphate buffer (pH 7.4)), 25.2 µg/mL (≈ 122 µM). Also, the Paw edema volume was 0.33 ± 0.013 mL in data set [4] (1 hr, the values are: paw edema volume); 0.48 ± 0.017 mL in data set [4] (2 hr, the values are: paw edema volume); 0.38 ± 0.013 mL in data set [4] (3 hr, the values are: paw edema volume); 0.24 ± 0.009 mL in data set [4] (4 hr, the values are: paw edema volume); 0.15 ± 0.01 mL in data set [4] (8 hr, the values are: paw edema volume); 0.03 ± 0.013^ns in data set [4] (24 hr). Further, in data set [5], the “Time to reach maximal plasma concentration” value was no more than 2 h.

(Values after article PMC3134853, “In Vitro and In Vivo Study of Poly(ethylene glycol) Conjugated Ibuprofen to Extend the Duration of Action” (Scientia Pharmaceutica, 2011).)
